Ends that are not written are not given here.
What was measured:
Assay type in all cases: cell-based
[1] = Cell viability assay (Cell Counting Kit-8); conditions: % PC12 cell viability compared to untreated control;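 note: PC12 cells in 96-well plates, WST-8 turned into formazan by cellular dehydrogenases, absorbance read at 450 nm after 2 h with the reagent, signal proportional to living cell number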
From the text: A Cell Counting Kit-8 (CCK-8) was used as an improvement of the SRB technique used before. By utilizing the highly water-soluble tetrazolium salt WST-8, CCK-8 produces a water-soluble formazan dye upon reduction in the presence of an electron carrier. WST-8 is reduced by dehydrogenases in cells to give a yellow colored product (formazan), which is soluble in the tissue culture medium. The amount of the formazan dye generated by the activity of dehydrogenases in cells is directly proportional to the number of living cells. PC12 cells are plated in 200 μl of complete growth medium the day before the experiment in 96 well plates. […] Subsequently, 100 μl of growth medium is removed and 10 μl of CCK-8 (Cell Counting Kit-8) solution is added. The plate is incubated for 2 hours in the incubator and then placed in the absorbance plate reader. The absorbance must be measured at 450 nm.

PC12 cells [2] = assay: Value coefficient (AChE release vs PC12 cell viability) and filter selection; conditions: for Value AChE/Viability: 1.0 to 1.1 = protective, control = 1; for neuroprotective agent against Aβ when all four filters are taken into consideration / neuroprotective agent against T30 when all four filters are taken into consideration: filters: value coefficient, in silico binding, calcium influx, peptide size
From the text: AChE release vs PC12 cell viability (for which there is a significant negative correlation); • 2. In silico binding to the allosteric site of the α7 nicotinic-receptor; • 3. Calcium influx into PC12 cells; and • 4. Peptide size.

PC12 cells [3] = assay: Acetylcholinesterase activity assay (AChE release from PC12 cells, Ellman reagent); conditions: % AChE release compared to untreated control
Protocol: AChE activity was measured using the Ellman reagent that measures the presence of thiol groups as a result of AChE activity. Cells were plated the day before the experiment as for the cell viability assay. […] The Ellman reagent was prepared as a mixture of the 3 solutions in a ratio 33(A):3(B):4(C). Absorbance measurements were taken at regular intervals (3, 10, 30 and 60 mins) across experiments at 405 nm.

PC12 cells [4] = assay: Calcium fluorometry (Fluo-8, acetylcholine-induced calcium influx); parameters: Calcium: scale not given here; conditions: for Calcium: calcium influx value, control based on acetylcholine alone; for dose-dependent effect on calcium potentiation against T30: dose-dependent experiments, FIGS. 8 and 9
From the text: A final criterion used to determine active peptides is the amount of calcium influx into PC12 cells caused by the peptide. The calcium influx value can be calculated as described in the methods section. The calcium value corresponds to the result from the experiment when applying T30 or Aβ alone or in conjunction with the small peptides. The control value for these experiments is based on the calcium influx induced by acetylcholine alone. Preferably, the peptide, derivative or analogue thereof has a calcium influx value of less than 120, and more preferably a value of 97-120.
PC12 cells are plated in 200 μl of complete growth medium the day before the experiment in 96 well plates. On the day of the experiment, the Fluo-8 solution (Abcam) is prepared (as per provider protocol). Subsequently, 100 μl of growth medium is removed and 100 μl of Fluo-8 solution is added. Treatments with T30 or Aβ in conjunction with NBP-14 or small peptides are added and incubated for 30 minutes in the incubator and 30 minutes room temperature.
After 1 hour, the plate is placed in the fluorescence plate reader (Fluostar). Before reading the fluorescence, acetylcholine (ACh) 100 μM is prepared and placed in the Fluostar injector. For each well, the reading will be formed by a basal fluorescence followed by acetylcholine injection that will induce an increase of calcium via nicotinic receptors. The effects of the peptides are then evaluated.

[5] = T30 5 μM + small peptide 0.5 μM

Substance | viability ([1]; Aβ 5 μM + small peptide 0.5 μM) [%] | Value AChE/Viability (PC12 cells [2]; Aβ 5 μM + small peptide 0.5 μM) | AChE (PC12 cells [3]; Aβ 5 μM + small peptide 0.5 μM) [%] | Calcium (PC12 cells [4]; Aβ + small peptide) | viability [1, 5] [%] | Value AChE/Viability (PC12 cells [2]; [5]) | AChE (PC12 cells [3]; [5]) [%] | Calcium (PC12 cells [4]; T30 + small peptide) | neuroprotective agent against Aβ when all four filters are taken into consideration (PC12 cells [2]) | neuroprotective agent against T30 when all four filters are taken into consideration (PC12 cells [2]) | dose-dependent effect on calcium potentiation against T30 (PC12 cells [4])
KAEFH [NBP-503] | 110 | 1.07 | 117.63 | 195.67 | – | – | – | – | – | – | –
SYMVHWKAEF [NBP-1011] | 81.7 | 1.03 | 84.13 | 161.87 | – | – | – | – | – | – | –
YMVHWKAEFHRW [NBP-1212] | – | – | – | – | 88.3 | 1 | 88.29 | 78 | – | – | –
HRWSSYMVHWKA [NBP-1207] | 87.4 | 1.08 | 94.30 | 261.22 | – | – | – | – | – | – | –
WKAEFHRWSSY [NBP-1102] | – | – | – | – | 104 | 1 | 104.31 | 89.28 | – | – | –
MVHWKAEFHRWS [NBP-1213] | 90.8 | 1.03 | 93.73 | 146.97 | – | – | – | – | – | – | –
WKAEFH [NBP-602] | – | – | – | – | 108 | 1.04 | 112.32 | 169.86 | – | – | –
HRWSSY [NBP-607] | 94.9 | 1.03 | 97.53 | 168.97 | – | – | – | – | – | – | –
SSYMV [NBP-510] | 101 | 1.03 | 104.25 | 167.56 | – | – | – | – | – | – | –
KAEFHRWSSYMVH [NBP-1303] | 91.2 | 1.06 | 96.73 | 106.33 | – | – | – | – | – | – | –
SSYMVHW [NBP-710, SSYMVHW] | 109 | 1 | 108.85 | 114.33 | – | – | – | – | agents against Aβ | – | –
YMVHWKAEFHR [NBP-1112] | 93.4 | 1.06 | 98.77 | 127.62 | – | – | – | – | – | – | –
WSSYMVH [NBP-709] | 102 | 1.07 | 108.99 | 288.61 | – | – | – | – | – | – | –
WSSYMVHWKAEFHR [NBP-1409] | – | – | – | – | 94.8 | 1 | 94.85 | 94.59 | – | – | –
WSSYM [NBP-509] | 102 | 1.04 | 106.20 | 363.48 | – | – | – | – | – | – | –
WSSYMVHWKA [NBP-1009] | 97.5 | 1.04 | 101.23 | 255.80 | – | – | – | – | – | – | –
HRWSSYMVHWKAE [NBP-1307] | 92.5 | 1.02 | 94.29 | 218.25 | – | – | – | – | – | – | –
EFHRWSSYMVHW [NBP-1205] | – | – | – | – | 89.4 | 1.07 | 95.79 | 132.71 | – | – | –
HWKAEFHR [NBP-801] | 102 | 1.06 | 108.63 | 168.66 | – | – | – | – | – | – | –
HRWSSYMVHWK [NBP-1107] | – | – | – | – | 93.1 | 1 | 93.13 | 95.43 | – | – | –
MVHWKA [NBP-613, MVHWKA] | – | – | – | – | 103 | 1 | 103.45 | 102.29 | – | neuroprotective agents against T30 | protect against T30 effects
EFHRWSS [NBP-705, EFHRWSS] | – | – | – | – | 91 | 1.03 | 94.07 | 111.98 | – | neuroprotective agents against T30 | –
SSYMVHWKAEFHRW [NBP-1410] | 93.5 | 1 | 93.51 | 160.54 | 93.5 | 1 | 93.51 | 120.09 | – | – | –
HWKAEFHRWSSY [NBP-1201] | 93.1 | 1.02 | 94.84 | 114.35 | – | – | – | – | – | – | –
HWKAEF [NBP-601, HWKAEF] | – | – | – | – | 93.2 | 1.08 | 100.99 | 118.37 | – | neuroprotective agents against T30 | protect against T30 effects

Substance | viability ([1]; Aβ 5 μM + small peptide 0.5 μM) [%] | Value AChE/Viability (PC12 cells [2]; Aβ 5 μM + small peptide 0.5 μM) | AChE (PC12 cells [3]; Aβ 5 μM + small peptide 0.5 μM) [%] | Calcium (PC12 cells [4]; Aβ + small peptide) | viability [1, 5] [%] | Value AChE/Viability (PC12 cells [2]; [5]) | AChE (PC12 cells [3]; [5]) [%] | Calcium (PC12 cells [4]; T30 + small peptide) | neuroprotective agent against Aβ when all four filters are taken into consideration (PC12 cells [2]) | neuroprotective agent against T30 when all four filters are taken into consideration (PC12 cells [2]) | dose-dependent effect on calcium potentiation against T30 (PC12 cells [4])
RWSSYMVHWKAEFH [NBP-1408] | – | – | – | – | 93.6 | 1 | 93.64 | 80.25 | – | – | –
MVHWKAEFHRWSSY [NBP-1413] | 95.2 | 1.05 | 99.85 | 125.28 | – | – | – | – | – | – | –
RWSSYMV [NBP-708, RWSSYMV] | – | – | – | – | 97.8 | 1 | 97.79 | 97.04 | – | neuroprotective agents against T30 | –
WKAEFHRWSSYMVH [NBP-1402] | 91.6 | 1.09 | 99.85 | 127.81 | – | – | – | – | – | – | –
HRWSSYM [NBP-707] | – | – | – | – | 98.5 | 1 | 98.35 | 120.17 | – | – | –
MVHWKAEFHR [NBP-1013] | – | – | – | – | 85.3 | 1.08 | 91.79 | 181.12 | – | – | –
YMVHW [NBP-512] | 104 | 1.01 | 104.81 | 163.09 | – | – | – | – | – | – | –
VHWKAE [NBP-614] | 77.7 | 1.09 | 85.05 | 124.34 | – | – | – | – | – | – | –
FHRWSSYMVHWK [NBP-1206] | 93.6 | 1.04 | 96.92 | 127.27 | – | – | – | – | – | – | –
MVHWKAEFHRWSS [NBP-1313] | – | – | – | – | 89 | 1.05 | 93.64 | 118.94 | – | – | –
AEFHRWSSYMV [NBP-1104] | – | – | – | – | 111 | 1 | 102.36 | 119.82 | – | – | –
AEFHRWSS [NBP-804] | – | – | – | – | 108 | 1 | 107.69 | 106.7 | – | neuroprotective agents against T30 | –
KAEFHRWSSYMV [NBP-1203] | 95.5 | 1.04 | 99.63 | 192.38 | – | – | – | – | – | – | –
VHWKAEFHRWSSY [NBP-1314] | 97.9 | 1.06 | 104.08 | 130.85 | – | – | – | – | – | – | –
EFHRWSSYMVHWKA [NBP-1405] | – | – | – | – | 83.9 | 1.09 | 91.57 | 100.59 | – | – | –
SYMVHWK [NBP-711] | 106 | 1.02 | 108.57 | 148.17 | – | – | – | – | – | – | –
HWKAEFHRWSS [NBP-1101] | – | – | – | – | 91.9 | 1 | 91.9 | 86.58 | – | – | –
RWSSYMVHWKA [NBP-1108] | 77.7 | 1.06 | 82.74 | 392.11 | – | – | – | – | – | – | –
SSYMVHWKAEFH [NBP-1210] | 97.5 | 1.01 | 98.18 | 127.83 | – | – | – | – | – | – | –
EFHRWSSYM [NBP-905] | 97.2 | 1.09 | 106.42 | 194.22 | – | – | – | – | – | – | –
HRWSSYMVHWKAEF [NBP-1407] | – | – | – | – | 90.5 | 1.04 | 94.49 | 111.71 | – | – | –
SYMVHW [NBP-611, SYMVHW] | 82.2 | 1.08 | 88.60 | 114.39 | – | – | – | – | agents against Aβ | – | –
FHRWSS [NBP-606] | – | – | – | – | 103 | 1.05 | 107.88 | 131.85 | – | – | –
SYMVHWKAEFHRW [NBP-1311] | 86.1 | 1.09 | 93.51 | 137.63 | – | – | – | – | – | – | –

Source: patent publication US10729749B2, “Neurodegenerative disorders” (priority 2014, dated 2020)
